Results from patent US20170216252A1, “ANTI-BACTERIAL PYRUVATE KINASE MODULATOR COMPOUNDS, COMPOSITIONS, USES AND METHODS” (SIMON FRASER UNIVERSITY, priority 2014, published 2017).
pIC50: −log10 of the molar value. Values after ≈ are worked out from the molar mass of the structure shown.

Each compound was assayed against T1, MRSA PK (Staphylococcus aureus, UniProt Q6GG09) (assay: MRSA PK activity, continuous LDH-coupled assay). Conditions: not given.
T1 construct: His tag (pET-28a(+) vector) (N); made in house; host or cells: E. coli BL-21 (DE3)
T1 sequence (Q6GG09 whole entry): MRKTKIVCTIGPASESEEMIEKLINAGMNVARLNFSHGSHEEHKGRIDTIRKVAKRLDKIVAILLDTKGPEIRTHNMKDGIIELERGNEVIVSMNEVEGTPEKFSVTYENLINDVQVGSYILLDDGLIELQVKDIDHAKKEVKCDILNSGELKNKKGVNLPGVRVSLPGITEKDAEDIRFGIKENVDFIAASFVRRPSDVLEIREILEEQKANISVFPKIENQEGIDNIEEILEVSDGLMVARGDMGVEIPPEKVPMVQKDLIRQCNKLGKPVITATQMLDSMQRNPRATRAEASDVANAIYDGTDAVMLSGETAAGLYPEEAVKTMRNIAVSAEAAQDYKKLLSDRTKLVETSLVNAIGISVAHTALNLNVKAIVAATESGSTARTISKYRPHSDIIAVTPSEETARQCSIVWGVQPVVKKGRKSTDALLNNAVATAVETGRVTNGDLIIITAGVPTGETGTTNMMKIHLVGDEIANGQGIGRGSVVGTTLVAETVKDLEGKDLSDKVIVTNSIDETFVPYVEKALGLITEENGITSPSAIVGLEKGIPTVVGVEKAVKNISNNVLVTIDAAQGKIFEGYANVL
Assay type: biochemical, S. aureus (MRSA strain Sanger 252)
Excerpt: Genomic DNA of MRSA strain Sanger 252 extracted using DNeasy Tissue Kit™ (Qiagen™) was used as a template to generate the His-tagged MRSA PK. Human cDNA from MCF-7 breast cancer cell line (courtesy of Dr. J Wong, BC Cancer Research Center (Vancouver, Canada) was used as a template to generate the full-length human M2 PK enzyme. The following primer sets were used creating appropriate restriction sites (NdeI and XhoI sites underlined): For cloning of MRSA PK: M27F 5′-[…]-3′ and M27R 5′-[…]-3′, for cloning of human M2 PK isoform: hM2F 5′-[…]-3′ and hM2R 5′-[…]-3′. The resulting PCR fragments for each construct were cloned into the NdeI and XhoI unique sites of the bacterial expression vector pET-28a (+) (Novagen™). […] The sequence and the correct reading frame of all constructs were verified by sequencing. Human M1, R and L PK constructs in pET-28-a(+) vectors (courtesy of Dr. L. Cantley, Harvard Medical, School (Boston, USA)) were used to generate relevant recombinant His-tagged human PK isoforms.
MRSA and human constructs in pET-28a(+) were used to express relevant recombinant PK proteins in E. coli BL-21 (DE3). The proteins were expressed and purified using Ni-NTA agarose (Qiagen™) according to the manufacturer's protocol. Briefly, cells were grown to an absorbance of 0.4-0.5 at 600 nm in 2×YT medium, then induced with 0.1 mM IPTG for 3 h at 20° C. Cells were lysed by sonication on ice (3×10-s bursts with a 30-s recovery between bursts) in lysis buffer (0.2 mg/ml lysozyme, 50 mM Tris pH 7.5, 10 mM MgCl2, 200 mM NaCl, 100 mM KCl, 10% glycerol, 10 mM imidazole, 0.5% NP-40 and 1 mM DTT containing Complete™ protease inhibitor). Cell lysates were cleared by centrifugation (18,000×g in a Beckman™ JA-20 rotor) for 20 min at 4° C. and PK isoforms were purified by batch binding to Ni-NTA resin. The resins were then packed in columns (1×2 cm) and washed with 400 column volumes lysis buffer containing 30 mM imidazole. His-tagged PK isoforms were eluted with the same buffer containing 300 mM imidazole. The proteins were dialyzed overnight at 4° C. against 2000 volumes of ice-cold 30 mM Tris pH 7.5, 25 mM KCl, 5 mM MgCl2, 10% glycerol and 1 mM DTT to remove imidazole. All purification steps were done at 4° C.; enzymes were flash-frozen and stored at −70° C. […] Purity and physical integrity of proteins were assessed using SDS-polyacrylamide gel electrophoresis (SDS-PAGE) followed by coomassie blue staining. Protein concentration was estimated by Bradford assay (Bio-Rad Protein Assay™) using bovine serum albumin as a standard.
Candidate MRSA PK inhibitors were assayed for their ability to inhibit enzymatic activities of MRSA and human PKs. PK activity was determined using a continuous assay coupled to lactate dehydrogenase (LDH) in which the change in absorbance at 340 nm owing to oxidation of NADH was measured using a Benchmark Plus™ microplate spectrophotometer (Bio-Rad Laboratories, Hercules, Calif.). […] Reactions were initiated by the addition of 15 nM of one of the PK enzymes. PK activity proportional to the rate of change at 340 nm was expressed as specific activity (μmol/min/mg), which is defined as the amount of PK that catalyzes the formation of one micromole of either product per minute. Inhibitors were dissolved in DMSO with the final concentration of the solvent never exceeding 1% of the assay volume. IC50 values were calculated by curve fitting on a four-parameter dose-response model with variable slope using Graphpad Prism 5.0™ (GraphPad™ Software Inc., La Jolla, Calif.). […] Reactions were performed at 30° C. for up to 5 min. All values determined represent at least two measurements, in triplicate (Tables 1-6) or duplicate unless mentioned otherwise.
Work on Brc1ccc(/C=C/c2cc3ccc(Br)cc3[nH]2)nc1 [Compound 99, (E)-6-Bromo-2-(2-(5-bromopyridin-2-yl)vinyl)-1H-indole] yielded a pIC50 of 7.00 to 7.30.
In the case of O=C(Nc1cc(Br)ccc1O)c1cc2ccc(Br)cc2[nH]1 [Compound 62, 6-Bromo-N-(5-bromo-2-hydroxyphenyl)-1H-indole-2-carboxamide], the pIC50 was 7.91.
Work on Cc1csc(/C=C/c2cc3ccc(Br)cc3[nH]2)c1 [Compound 117, (E)-6-Bromo-2-(2-(4-methylthiophen-2-yl)vinyl)-1H-indole] yielded a pIC50 of less than 6.00.
With FC(F)(F)C1(c2ccc(-c3cc4ccc(Br)cc4[nH]3)cc2)N=N1 [Compound 94, 6-bromo-2-(4-(3-(trifluoromethyl)-3H-diazirin-3-yl)phenyl)-1H-indole] the pIC50 was 7.11.
Cc1ncc(/C=C/c2cc3ccc(Br)cc3[nH]2)s1 [Compound 115, (E)-5-(2-(6-Bromo-1H-indol-2-yl)vinyl)-2-methylthiazole] was tested, and the pIC50 was less than 6.00.
[N-]=[N+]=Nc1ccc2cc(-c3cc4ccc(Br)cc4[nH]3)[nH]c2c1 [Compound 88, 6-azido-6′-bromo-1H,1′H-2,2′-biindole] gave a pIC50 of 7.65.
Compound Cc1nc(/C=C/c2cc3ccc(Br)cc3[nH]2)co1 [Compound 112, (E)-4-(2-(6-Bromo-1H-indol-2-yl)vinyl)-2-methyloxazole] has a pIC50 of less than 4.00.
COC(=O)c1c(C#Cc2ncc(Cl)cn2)[nH]c2cc(Br)ccc12 [Compound 143, Methyl 6-bromo-2-((5-chloropyrimidin-2-yl)ethynyl)-1H-indole-3-carboxylate] gave a pIC50 greater than 7.30.
With Cc1csc(/C=C/c2cc3ccc(Br)cc3[nH]2)n1 [Compound 113, (E)-2-(2-(6-Bromo-1H-indol-2-yl)vinyl)-4-methylthiazole] the pIC50 was less than 6.00.
COc1ccc(/C=C/c2cc3ccc(Br)cc3[nH]2)cn1 [Compound 111, (E)-6-Bromo-2-(2-(6-methoxypyridin-3-yl)vinyl)-1H-indole] was tested, and the pIC50 was less than 6.00.
Work on COc1ccc(C#Cc2cc3ccc(Br)cc3[nH]2)cn1 [Compound 144, 6-Bromo-2-((6-methoxypyridin-3-yl)ethynyl)-1H-indole] yielded a pIC50 of less than 6.00.
Compound O=C(c1c(/C=C/c2cn3ccccc3n2)[nH]c2cc(Br)ccc12)C(F)(F)F [Compound 176, (E)-1-(6-Bromo-2-(2-(imidazo[1,2-a]pyridin-2-yl)vinyl)-1H-indol-3-yl)-2,2,2-trifluoroethanone] has a pIC50 of less than 6.00.
COC(=O)c1c(-c2cc3ccc(Br)cc3[nH]2)[nH]c2ccccc12 [Compound 90, methyl 6′-bromo-1H,1′H-[2,2′-biindole]-3-carboxylate] was tested, and the pIC50 was 8.62.
Cn1c(-c2cc3ccccc3s2)nc2ccc(Br)cc21 [Compound 155, 2-(Benzo[b]thiophen-2-yl)-6-bromo-1-methyl-1H-benzo[d]imidazole] gave a pIC50 of 6.00 to 7.00.
In the case of CC(=O)c1c(/C=C/c2ccc(Cl)cc2)[nH]c2cc(Br)ccc12 [Compound 122, (E)-1-(6-Bromo-2-(4-chlorostyryl)-1H-indol-3-yl)ethanone], the pIC50 was 6.00 to 7.00.
In the case of Brc1ccc2cc(C#Cc3ccccn3)[nH]c2c1 [Compound 140, 6-Bromo-2-(pyridin-2-ylethynyl)-1H-indole], the pIC50 was less than 6.00.
Work on Cc1ccc(/C=C/c2cc3ccc(Br)cc3[nH]2)o1 [Compound 114, (E)-6-Bromo-2-(2-(5-methylfuran-2-yl)vinyl)-1H-indole] yielded a pIC50 of less than 6.00.
Compound Cc1ccc(/C=C/c2cc3ccc(Br)cc3[nH]2)s1 [Compound 116, (E)-6-Bromo-2-(2-(5-methylthiophen-2-yl)vinyl)-1H-indole] has a pIC50 of less than 6.00.
Work on Cn1c(-c2cc3ccccc3s2)nc2cc(Br)ccc21 [Compound 156, 2-(Benzo[b]thiophen-2-yl)-5-bromo-1-methyl-1H-benzo[d]imidazole] yielded a pIC50 of less than 6.00.
For COC(=O)c1c(C#Cc2cc3cc(Cl)ccc3[nH]2)[nH]c2cc(Br)ccc12 [Compound 145, Methyl 6-bromo-2-((5-chloro-1H-indol-2-yl)ethynyl)-1H-indole-3-carboxylate], the pIC50 was less than 6.00.
Work on [N-]=[N+]=Nc1ccc(-c2cc3ccc(Br)cc3[nH]2)cc1 [Compound 93, 2-(4-azidophenyl)-6-bromo-1H-indole] yielded a pIC50 of 7.39.
With FC(F)(F)C1(c2ccc(-c3[nH]c4cc(Br)ccc4c3Cl)cc2)N=N1 [Compound 92, 6-bromo-3-chloro-2-(4-(3-(trifluoromethyl)-3H-diazirin-3-yl)phenyl)-1H-indole] the pIC50 was 6.96.
Compound COc1ccc(/C=C/c2[nH]c3cc(Br)ccc3c2C(=O)C(F)(F)F)nc1 [Compound 172, (E)-1-(6-Bromo-2-(2-(5-methoxypyridin-2-yl)vinyl)-1H-indol-3-yl)-2,2,2-trifluoroethanone] has a pIC50 of less than 6.00.
In the case of COc1ccc(/C=C/c2[nH]c3cc(Br)ccc3c2C(=O)O)nc1 [Compound 151, (E)-6-Bromo-2-(2-(5-methoxypyridin-2-yl)vinyl)-1H-indole-3-carboxylic acid], the pIC50 was less than 6.00.
Brc1ccc(CCc2cc3ccc(Br)cc3[nH]2)cc1 [Compound 37b, 6-bromo-2-(4-bromophenethyl)-1H-indole] gave a pIC50 of 6.73.

Same assay, conditions: Tables 1-6; 2 mM ADP, 10 mM PEP, 15 nM PK; read-out: IC50
Work on Cn1c(C#Cc2cc3ccc(Br)cc3[nH]2)cc2ccc(Br)cc21 [Compound 26a, 6-bromo-2-((6-bromo-1H-indol-2-yl)ethynyl)-1-methyl-1H-indole] yielded a pIC50 of 7.86.

Same assay, conditions: read-out: % inhibition (IC50)
With Brc1ccc2cc(CCc3ccccc3)[nH]c2c1 [Compound 37a, 6-bromo-2-phenethyl-1H-indole] the inhibition at 4 µM was 56%.

Same assay, conditions: read-out: % inhibition at the highest concentration tested (IC50)
FC(F)(F)C1(c2ccc(-c3cc4ccc(Br)cc4[nH]3)cc2)NN1 [Compound 89, 6-Bromo-2-(4-(3-(trifluoromethyl)diaziridin-3-yl)phenyl)-1H-indole] gave an inhibition at 10 µM of 84%.
Brc1ccc2[nH]c(C#Cc3cc4cc(Br)ccc4[nH]3)cc2c1 [Compound 45, 1,2-bis(5-Bromo-1H-indol-2-yl)ethyne] showed an inhibition at 10 µM of 60%.
In the case of Cn1c(C#Cc2cc3ccc(Br)cc3n2C)cc2ccc(Br)cc21 [Compound 26b, 1,2-bis(6-bromo-1-methyl-1H-indol-2-yl)ethyne], the inhibition at 10 µM was 27%.
Brc1ccc2[nH]c(-c3cc4ccccc4[nH]3)cc2c1 [Compound 10h, 5-Bromo-1H,1′H-2,2′-biindole] was tested, and the inhibition at 10 µM was 36%.

Each compound was assayed on S. aureus ATCC 29213 (assay: In vitro susceptibility, broth microdilution MIC). Conditions: Staphylococcus aureus, ATCC29213, Table 8; tested at least in duplicate, differing values all given; read-out: MIC.
Assay type: cell-based, Staphylococcus aureus
Experimental: The antimicrobial activities of PK inhibitor candidates were determined using the 96-well microtiter standard 2-fold serial broth microdilution method as described by CLSI (formerly NCCLS) with the various gram-positive and gram-negative bacteria species mentioned above. Bacteria from a single colony were grown, overnight in either BHI Broth (VRE), mueller hinton broth (S. aureus 29213; MRSA USA400) or L-broth (E. coli, P. aeruginosa, S. typhimuriu, K. Pneumonia and A. baumannii). […] Culture plates were incubated for 18-24 h at 37° C., and optical density at 600 nm (OD600) was measured using a Benchmark Plus™ microplate spectrophotometer (Bio-Rad™). The absorbance control values for the series containing CAMHB and inhibitor were subtracted as background from the corresponding infected wells. The MIC was defined as the lowest concentration of test compound leading to complete inhibition of cell growth in relationship to compound-free control wells as determined by optical density. […] All assays were run in triplicate (Tables 1-6) or duplicate. Experiments were replicated at least twice to verify reproducibility using the above conditions.
With Brc1ccc(/C=C/c2cc3ccc(Br)cc3[nH]2)nc1 [Compound 99, (E)-6-Bromo-2-(2-(5-bromopyridin-2-yl)vinyl)-1H-indole] the MIC was 32 µg/mL (≈ 84.6 µM).

Same assay, conditions: Staphylococcus aureus, ATCC29213, Tables 1-6 and text; minimum concentration to give >98% inhibition of growth; read-out: MIC
O=C(Nc1cc(Br)ccc1O)c1cc2ccc(Br)cc2[nH]1 [Compound 62, 6-Bromo-N-(5-bromo-2-hydroxyphenyl)-1H-indole-2-carboxamide] was tested, and the MIC was greater than 64 µg/mL.
Brc1ccc2[nH]c(C#Cc3cc4cc(Br)ccc4[nH]3)cc2c1 [Compound 45, 1,2-bis(5-Bromo-1H-indol-2-yl)ethyne] was tested, and the MIC was greater than 64 µg/mL.
Work on Cn1c(C#Cc2cc3ccc(Br)cc3[nH]2)cc2ccc(Br)cc21 [Compound 26a, 6-bromo-2-((6-bromo-1H-indol-2-yl)ethynyl)-1-methyl-1H-indole] yielded an MIC greater than 64 µg/mL.
